Read-outs that look alike come from different tables or passages of the source.
Legend:
[1] = Pharmacokinetics in CD-1 mice, IV; format: in vivo; details: for Auclast / Cmax / MRT inf / Tmax / half-life / AUC(0-t) / clearance / Vd: intravenously 5 mg/kg; for blood–brain barrier crossing (in words) / clearance (in words): IV 5 mg/kg; for Cmax / MRT inf / Tmax / half-life / AUC(0-t) / clearance / Vd: male, mouse, iv; for half-life: read-out: Terminal t1/2; for Vd: read-out: Vss
Description: Analysis of pharmacokinetic parameters of 18A and 18B was performed by the Preclinical Pharmacology Core Lab (UT Southwestern Medical Center). Animal work described in this manuscript has been approved and conducted under the oversight of the UT Southwestern Institutional Animal Care and Use Committee and were carried out in accordance with relevant guidelines and regulations. UT Southwestern uses the “Guide for the Care and Use of Laboratory Animals” when establishing animal research standards. All methods are reported in accordance with ARRIVE guidelines. Compounds were suspended in 10% DMSO/20% PEG400/70% (30% HPβCD in water) at 0.484 mg/mL (18A) or at 0.5 mg/mL (18B). Compounds were administered to male CD1 mice (Charles River Laboratories, Wilmington, MA) IV via the tail vein at 5 mg/kg (0.30 mL dose volume for 18A, 0.35 mL dose volume for 18B). Mice were randomly assigned to time point groups and all investigators were aware of these assignments. After inhalation overdose of CO2, blood and tissues were collected from three mice per timepoint, at 5, 15, 30, 60, 240, 360, and 480 min post dosing, such that a mean concentration and standard deviation about the mean could be reported. Blood and tissues were also collected from mice dosed with Vehicle only at 480 min. Blood was collected using the anticoagulant ACD (acidified citrate dextrose) and plasma was isolated from the blood by centrifugation at 4 °C, 9600 × g for 10 min. After rinsing with PBS, tissues were weighed, snap-frozen in liquid nitrogen and stored at − 80 °C until processing. Brain was homogenized in a three-fold volume of PBS (weight by volume). Plasma and brain homogenates were extracted using a two-fold volume of methanol containing 0.15% formic acid and 37.5 ng/ml of an internal standard, n-benzylbenzamide (Sigma, St. Louis, MO). Samples were vortexed for 15 s, incubated at RT for 10 min and then centrifuged at 16,100 × g for 5 min at 4 °C. The supernatant was spun a second time and then analyzed by LC–MS/MS using a Sciex (Framingham, MA) 4000QTRAP® (positive ESI, multiple-reaction monitoring mode) after separation on an Agilent (Santa Clara, CA) C18 XDB column (5 micron packing, 50 × 4.6 mm size). The following separation gradient was used (Buffer A: water with 0.1% formic acid; Buffer B: MeOH with 0.1% formic acid): 0–1 min 5% B, 1–1.5 min gradient to 100% B, 1.5–3 min 100% B, 3–3.2 min gradient to 5% B, 3.2–4.5 min 5% B. For 18A, the transition (m/z) of 336.0/305.0 was monitored (retention time: 2.08 min); for 18B, the transition (m/z) of 336.1/169.0 was monitored (retention time: 2.09 min). The transition 212.1/91.1 (retention time 2.05 min) was monitored for the internal standard, n-benzylbenzamide. Tissues and plasma from untreated mice were used as controls to establish background noise for LC–MS/MS analysis of compound levels. Pharmacokinetic parameters were calculated using sparse sampling and the noncompartmental analysis tool in WinNonlin (Certara Corp, Princeton, NJ) for plasma and brain. Because mice were not perfused prior to collection of brain, the amount of compound estimated to be in the vasculature of the brain was subtracted using the measured plasma concentration and literature values for the volume of residual blood (30 µl/g tissue) in the brain Kwon[102].

[2] = biological target: recombinant BRD4 BD1; design: method as in PMID 31969702, PMID 32193360, doi:10.1002/anse.202200020; details: read-out: KD against recombinant BRD4 BD1; cited from earlier work
[3] = test system: PGRN-Luc; experiment: HMC3 PGRN-luciferase reporter assay; format: cell-based, human; details: HMC3 PGRN-Luc cells, 8 h of treatment
Description: HMC3 PGRN-Luc cells were trypsinized from confluent T-75 flasks and re-suspended in HMC-3 media at 150,000–200,000 cells/mL. 30 µL of cell suspension was then seeded onto each well of black, 384-well clear-bottom plates (Corning 3712) using the Multidrop Combi (Thermo Fisher). Cells were allowed to adhere to plates in the incubator at 37 °C/5% CO2 for 6–8 h. After 6–8 h, compounds were added to each well using the D300e (Tecan) compound dispenser, and all wells were DMSO-normalized (0.3%). Cells were allowed to incubate with compounds for indicated timeframes.
Plates were removed from the incubator and allowed to cool to RT. 15 µL of media was removed from each well using a multichannel pipette and added to separate Corning 3712 plates for a read of “secreted” PGRN. To both the media-containing plates as well as the cell-containing plates (with 15 µL media remaining) is then added 15 µL of active luminescence reagent (Thermo 18,636) which was generated according to manufacturer’s instructions. Plates were allowed to nutate at RT for 15 min prior to reading using the EnVision (PerkinElmer). For calculation of the internal PGRN-Luc signal, the secreted signal (15 µL media) was subtracted from the signal of the cell-containing plates (with 15 µL media remaining). For “total” PGRN-Luc signal, a sample of media was not aliquoted into a separate plate, and instead, 30 µL of active luminescence reagent was added directly to each well.
For the mivebresib and panobinostat time-course experiment, the above procedure was followed, with the exception that cells were seeded at 66,600 cells/mL in 30 µL media, and allowed to grow overnight prior to compound addition for the indicated timeframes.

[4] = biological target: recombinant BRD4 BD2; design: method as in PMID 31969702, PMID 32193360, doi:10.1002/anse.202200020; details: read-out: KD against recombinant BRD4 BD2; cited from earlier work
[5] = test system: BRD4 protein levels; experiment: Immunoblotting of BRD4 in human NPCs; format: cell-based; details: co-treatment with MLN-4924 (1 µM) and mivebresib (1 µM)
Description: Gels were then transferred onto PVDF membranes (Immobilon-P, Millipore IPVH00010). […] Membranes were washed with TBST for 1 h, and developed with the chemiluminescence reagents used above.
NPCs were cultured normally in 6-well plates as described previously. […] Plates returned to the incubator. […] Plates returned to the incubator. After 4 h, to the indicated wells is directly added 1 µL 2 mM mivebresib (MedChem Express HY-100015) in DMSO for a final concentration of 1 µM, or 1 µL DMSO. All plates were returned to the incubator overnight. […] 200 µL of supernatant was then transferred to a fresh, labeled Eppendorf rube, which was then stored at − 20 °C prior to further analysis. Sample concentration was quantified using the BCA assay as described above, and normalized to 250 µg/mL in M-PER lysis buffer prior to PGRN quantification using the Jess.

total (combined internal and secreted) PGRN-Luc signal [3] | Compound | Auclast ([1]; Brain) | blood–brain barrier crossing (in words) [1] | clearance (in words) [1] | Cmax ([1]; Brain) | MRT inf ([1]; Brain) | Tmax ([1]; Brain) | half-life ([1]; Brain) | AUC(0-t) ([1]; Plasma) | Cmax ([1]; Plasma) | MRT inf ([1]; Plasma) | Tmax ([1]; Plasma) | clearance ([1]; Plasma) | half-life ([1]; Plasma) | Vd ([1]; Plasma) | Kd [2] | Kd [4] | enhancement of BRD4 protein levels [5]
 | Cn1ccc2c(-c3cccnc3Oc3ccc(F)cc3)c[nH]c2c1=O [Compound 18B, 3-[2-(4-fluorophenoxy)pyridin-3-yl]-6-methyl-1,6-dihydro-7H-pyrrolo[2,3-c]pyridin-7-one] | 31579 ng·min/g | readily cross the blood–brain barrier | cleared quite rapidly | 1690 ng/g | 17.6 min | 5 min | 73 min | 511 ng·h/mL | 1620 ng/mL | 25.8 min | 5 min | 5.61 mL/min | 140 min | 0.145 L |  |  | 
to the same extent as did panobinostat | CCS(=O)(=O)Nc1ccc(Oc2ccc(F)cc2F)c(-c2cn(C)c(=O)c3[nH]ccc23)c1 [mivebresib] |  |  |  |  |  |  |  |  |  |  |  |  |  |  | ≤ 2.8 nM | ≤ 2 nM | ~ fourfold
 | Cn1cc(-c2cccnc2Oc2ccc(F)cc2)c2cc[nH]c2c1=O [Compound 18A, 4-(2-(4-fluorophenoxy)pyridin-3-yl)-6-methyl-1H-pyrrolo[2,3-c]pyridin-7(6H)-one] | 63285 ng·min/g | readily cross the blood–brain barrier | cleared quite rapidly | 2970 ng/g | 16.7 min | 5 min | 30 min | 658 ng·h/mL | 1780 ng/mL | 17.9 min | 5 min | 3.67 mL/min | 27 min | 0.067 L |  |  | 

From publication PMC11032351, “Epigenetic modulation through BET bromodomain inhibitors as a novel therapeutic strategy for progranulin-deficient frontotemporal dementia” (Scientific Reports, 2024)
